The compounds below were run against T1, human CD73 (Homo sapiens, UniProt P21589) (assay: Inhibition of ecto-5′-nucleotidase (CD73) activity in CHO-CD73 cells, phosphate colorimetric readout). Conditions: CHO-K1 cells stably transfected with human CD73, 2500 cells per well, 25 μM AMP substrate, 50 minutes incubation at 37° C.; read-out: Potency: CD73 IC50.
T1 construct: host or cells: CHO-K1 (suspension pool CHO-CD73)
T1 sequence (P21589 27-549): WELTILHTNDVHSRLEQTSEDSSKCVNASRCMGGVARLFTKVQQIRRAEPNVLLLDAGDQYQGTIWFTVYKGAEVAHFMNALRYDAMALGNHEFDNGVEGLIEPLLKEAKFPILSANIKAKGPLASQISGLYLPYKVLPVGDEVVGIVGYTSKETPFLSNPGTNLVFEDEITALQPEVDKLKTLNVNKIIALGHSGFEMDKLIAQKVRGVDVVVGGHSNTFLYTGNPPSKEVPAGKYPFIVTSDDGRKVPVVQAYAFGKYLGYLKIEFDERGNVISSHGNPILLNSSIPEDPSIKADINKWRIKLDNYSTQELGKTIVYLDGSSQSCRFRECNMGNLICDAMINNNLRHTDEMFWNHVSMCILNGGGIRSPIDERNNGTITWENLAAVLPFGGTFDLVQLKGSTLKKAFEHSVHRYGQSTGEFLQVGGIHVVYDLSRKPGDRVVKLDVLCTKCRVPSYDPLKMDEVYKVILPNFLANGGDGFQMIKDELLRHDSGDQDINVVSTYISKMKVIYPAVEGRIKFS
Type: cell-based
Procedure: Inhibition of Ecto-5′-nucleotidase Activity. Compounds were evaluated to determine their ecto-5′-nucleotidase (CD73) inhibitory activity. Briefly, CHO-K1 cells stably transfected with human CD73 were generated by LakePharma (Belmont, CA) using molecular cloning of human CD73 (http://www.uniprot.org/uniprot/P21589) and mammalian transient expression vector (P21589.1). After antibiotic selection in CD OptiCHO cell media (Invitrogen, Catalog #12681-011) containing 5 μg/mL Puromycin and 200 μg/mL Hygromycin B, a suspension pool of CHO-CD73 cells was collected and frozen in 7.5% DMSO in cell media without antibiotics.
On the day of the experiment, one vial of CHO-CD73 cells was thawed and suspended in assay media which consisted of 20 mM HEPES, pH 7.4, 137 mM NaCl, 5.4 mM KCl, 1.3 mM CaCl2), 4.2 mM NaHCO3 and 0.1% glucose. To test the ability of compounds to inhibit CD73 enzymatic activity, 2 μL of 500 μM of compounds dissolved in DMSO (50×) were added to a 96-well polystyrene plate containing 58 μL of assay buffer. Next, 20 μL of CHO-CD73 cells in assay buffer were added to assay plate followed by 20 μL of 125 μM AMP (Adenosine 5′-monophosphate monohydrate) in assay buffer. Final assay conditions consisted of 2500 cells per well in 2% DMSO and 25 μM of AMP substrate. After 50 minutes of incubation (37° C. and 5% CO2) and centrifugation at 225×g for 5 mins, 80 μL of supernatant were transferred to a 96-well Spectra Plate (PerkinElmer, cat #6005640) which was pre-dispensed with 20 μL of PiColorLock Gold colorimetric assay reagents (Thermo, cat #30 300 30). The amount of inorganic phosphate was determined by reading the absorbance at 620 nm on an EnVision Multilabel Plate Reader (PerkinElmer). Enzymatic activity of CD73 was based on the amount of phosphate generated. Percentage of activity was calculated based on DMSO and no cells control wells. IC50 values of compounds were determined by four parameter non-linear regression fitting of percentage of activity in GraphPad Prism software.

| SMILES | IC50 [nM] |
| --- | --- |
| O=P(O)(O)CP(=O)(O)OC[C@H]1O[C@@H](n2ncc3c(NCCc4ccccc4Cl)nc(Cl)nc32)[C@H](O)[C@@H]1O | < 100 |
| CN(C)c1nc(NCc2ccccc2)c2ncn([C@@H]3O[C@H](COP(=O)(O)CP(=O)(O)O)[C@@H](O)[C@H]3O)c2n1 | < 100 |
| Cc1cccc(CNc2nc(Cl)nc3c2ncn3[C@@H]2O[C@H](COP(=O)(O)CP(=O)(O)O)[C@@H](O)[C@@H]2F)c1 | < 100 |
| O=P(O)(O)CP(=O)(O)OC[C@H]1O[C@@H](n2cnc3c(NCc4ccc(-c5ccccc5)cc4)ncnc32)[C@H](O)[C@@H]1O | < 100 |
| O=P(O)(O)CP(=O)(O)OC[C@H]1O[C@@H](n2cnc3c(NCc4ccccc4)nc(Cl)nc32)[C@@H](F)[C@@H]1O | < 100 |
| CC(C)S(=O)(=O)c1nc(NCc2ccccc2)c2ncn([C@@H]3O[C@H](COP(=O)(O)CP(=O)(O)O)[C@@H](O)[C@H]3O)c2n1 | 100 to 1000 |
| C[C@@H](Nc1nc(Cl)nc2c1cnn2[C@@H]1O[C@H](COP(=O)(O)CP(=O)(O)O)[C@@H](O)[C@@H]1F)c1ccccc1F | < 100 |
| C[C@H](Nc1nc(Cl)nc2c1ccn2[C@@H]1O[C@H](COP(=O)(O)CP(=O)(O)O)[C@@H](O)[C@@H]1F)c1cccc(F)c1 | < 100 |
| CN(Cc1ccccc1Cl)c1nc(Cl)nc2c1cnn2[C@@H]1O[C@H](COP(=O)(O)CP(=O)(O)O)[C@@H](O)[C@H]1O | < 100 |
| O=P(O)(O)CP(=O)(O)OC[C@H]1O[C@@H](n2cnc3c(NCc4ccccc4)nc(N4CCOCC4)nc32)[C@H](O)[C@@H]1O | < 100 |
| Nc1nc(F)nc2c1ncn2[C@@H]1O[C@H](COP(=O)(O)CP(=O)(O)O)[C@@H](O)[C@H]1O | < 100 |
| COP(=O)(O)CP(=O)(OC)OC[C@H]1O[C@@H](n2cnc3c(N(C)C4CCCC4)nc(Cl)nc32)[C@@H](F)[C@@H]1O (stereo partly shown) | > 1000 |
| C[C@@H](Nc1nc(Cl)nc2c1cnn2[C@@H]1O[C@H](COP(=O)(O)CP(=O)(O)O)[C@@H](O)[C@@H]1F)c1cccc(F)c1 | < 100 |
| O=P(O)(O)CP(=O)(O)OC[C@H]1O[C@@H](n2cnc3c(NCc4cccc(F)c4)nc(Cl)nc32)[C@@H](F)[C@@H]1O | < 100 |
| COC(=O)c1ccccc1OP(=O)(CP(=O)(Oc1ccccc1C(=O)OC)Oc1ccccc1C(=O)OC)OC[C@H]1O[C@@H](n2cnc3c(N(C)C4CCCC4)nc(Cl)nc32)[C@H](O)[C@@H]1O (stereo partly shown) | > 1000 |
| CC(C)(C)c1ccc(CNc2nc(Cl)nc3c2ncn3[C@@H]2O[C@H](COP(=O)(O)CP(=O)(O)O)[C@@H](O)[C@H]2O)cc1 | < 100 |
| O=P(O)(O)CP(=O)(O)OC[C@H]1O[C@@H](n2ncc3c(NCc4ccccc4)nc(Cl)nc32)[C@H](O)[C@@H]1O | < 100 |
| C[C@@H](Nc1nc(Cl)nc2c1ccn2[C@@H]1O[C@H](COP(=O)(O)CP(=O)(O)O)[C@@H](O)[C@@H]1F)c1ccc(F)cc1 | < 100 |
| CC(C)N(C)c1nc(Cl)nc2c1ncn2[C@@H]1O[C@H](COP(=O)(O)CP(=O)(O)O)[C@@H](O)[C@H]1O | < 100 |
| O=P(O)(O)CP(=O)(O)OC[C@H]1O[C@@H](n2cnc3c(N4CCCCC4)nc(Cl)nc32)[C@@H](F)[C@@H]1O | < 100 |
| C[C@@]1(O)[C@H](O)[C@@H](COP(=O)(O)CP(=O)(O)O)O[C@H]1n1cnc2c(NC3CCCC3)nc(Cl)nc21 | < 100 |
| O=P(O)(O)CP(=O)(O)OC[C@H]1O[C@@H](n2cnc3c(N4Cc5ccccc5C4)nc(Cl)nc32)[C@@H](F)[C@@H]1O | < 100 |
| C[C@@H](Nc1nc(Cl)nc2c1cnn2[C@@H]1O[C@H](COP(=O)(O)CP(=O)(O)O)[C@@H](O)[C@H]1O)c1cccc(F)c1 | < 100 |

Further lines, results first:

| IC50 [nM] | SMILES |
| --- | --- |
| < 100 | C[C@@H](Nc1nc(Cl)nc2c1cnn2[C@@H]1O[C@H](COP(=O)(O)CP(=O)(O)O)[C@@H](O)[C@H]1O)c1ccc(F)cc1 |
| < 100 | C[C@H](Nc1nc(Cl)nc2c1cnn2[C@@H]1O[C@H](COP(=O)(O)CP(=O)(O)O)[C@@H](O)[C@@H]1F)c1ccccc1 |
| < 100 | C[C@H](Nc1cc(Cl)nc2c1cnn2[C@@H]1O[C@H](COP(=O)(O)CP(=O)(O)O)[C@@H](O)[C@H]1O)c1ccc(F)cc1 |
| 100 to 1000 | Nc1nc(F)nc2c1ncn2[C@@H]1O[C@H](COP(=O)(O)CP(=O)(O)O)[C@@H](O)[C@@H]1O |
| < 100 | O=P(O)(O)CP(=O)(O)OC[C@H]1O[C@@H](n2cnc3c(NC4CC4)nc(Cl)nc32)[C@@H](F)[C@@H]1O |
| < 100 | O=P(O)(O)CP(=O)(O)OC[C@H]1O[C@@H](n2ncc3c(NC4CCCC4)nc(Cl)nc32)[C@H](O)[C@@H]1O |
| < 100 | O=P(O)(O)CP(=O)(O)OC[C@H]1O[C@@H](n2cnc3c(NC4CCCC4)nc(Cl)cc32)[C@@H](F)[C@@H]1O |
| > 1000 | CC(C)OC(=O)OCOP(=O)(O)CP(=O)(OCOC(=O)OC(C)C)OC[C@H]1O[C@@H](n2ncc3c(N[C@@H](C)c4ccccc4)nc(Cl)nc32)[C@H](O)[C@@H]1O (stereo partly shown) |
| < 100 | O=P(O)(O)CP(=O)(O)OC[C@H]1O[C@@H](n2cnc3c(NCc4cc(C(F)(F)F)cc(C(F)(F)F)c4)ncnc32)[C@H](O)[C@@H]1O |
| < 100 | Nc1nc(Cl)nc2c1ncn2[C@@H]1O[C@H](COP(=O)(O)CP(=O)(O)O)[C@@H](O)[C@@H]1F |
| < 100 | O=P(O)(O)CP(=O)(O)OC[C@H]1O[C@@H](n2cnc3c(NCc4ccccc4Cl)nc(Cl)nc32)[C@@H](F)[C@@H]1O |
| < 100 | COCc1nc(NC2CCCC2)c2ncn([C@@H]3O[C@H](COP(=O)(O)CP(=O)(O)O)[C@@H](O)[C@@H]3F)c2n1 |
| < 100 | O=P(O)(O)CP(=O)(O)OC[C@H]1O[C@@H](n2cnc3c(NCc4cccc(Cl)c4)nc(Cl)nc32)[C@@H](F)[C@@H]1O |
| < 100 | C[C@@H](Nc1nc(Cl)nc2c1ccn2[C@@H]1O[C@H](COP(=O)(O)CP(=O)(O)O)[C@@H](O)[C@@H]1F)c1cccc(F)c1 |
| < 100 | CCc1nc(NCc2ccccc2)c2ncn([C@@H]3O[C@H](COP(=O)(O)CP(=O)(O)O)[C@@H](O)[C@H]3O)c2n1 |
| < 100 | CC(OP(=O)(O)CP(=O)(O)O)[C@H]1O[C@@H](n2cnc3c(NCc4ccccc4)nc(Cl)nc32)[C@H](O)[C@@H]1O (stereo partly shown) |
| < 100 | C[C@H](Nc1nc(Cl)nc2c1ncn2[C@@H]1O[C@H](COP(=O)(O)CP(=O)(O)O)[C@@H](O)[C@@H]1F)c1ccc(F)cc1 |

From patent US12459967B2, “Modulators of 5′-nucleotidase, ecto and the use thereof” (Arcus Biosciences, Inc., priority 2016, dated 2025)
